From patent US20060063759A1, “Tricyclic steroid hormone nuclear receptor modulators” (priority 2002, published 2006)

Key:
human MR = target: T1, human MR (Homo sapiens, UniProt P08235); experiment: Mineralocorticoid Receptor Binding Assay ([3H]-aldosterone); conditions: [3H]-aldosterone binding, human MR expressed in Sf9 cells; read-out: MR Ki
T1 construct: The full length human MR gene is cloned from a human kidney or human brain cDNA library; His tag from the pAcHLT vector (own knowledge); made in house; host or cells: Sf9 insect cells (baculovirus, pAcHLT transfer vector)
T1 sequence (P08235 1-984): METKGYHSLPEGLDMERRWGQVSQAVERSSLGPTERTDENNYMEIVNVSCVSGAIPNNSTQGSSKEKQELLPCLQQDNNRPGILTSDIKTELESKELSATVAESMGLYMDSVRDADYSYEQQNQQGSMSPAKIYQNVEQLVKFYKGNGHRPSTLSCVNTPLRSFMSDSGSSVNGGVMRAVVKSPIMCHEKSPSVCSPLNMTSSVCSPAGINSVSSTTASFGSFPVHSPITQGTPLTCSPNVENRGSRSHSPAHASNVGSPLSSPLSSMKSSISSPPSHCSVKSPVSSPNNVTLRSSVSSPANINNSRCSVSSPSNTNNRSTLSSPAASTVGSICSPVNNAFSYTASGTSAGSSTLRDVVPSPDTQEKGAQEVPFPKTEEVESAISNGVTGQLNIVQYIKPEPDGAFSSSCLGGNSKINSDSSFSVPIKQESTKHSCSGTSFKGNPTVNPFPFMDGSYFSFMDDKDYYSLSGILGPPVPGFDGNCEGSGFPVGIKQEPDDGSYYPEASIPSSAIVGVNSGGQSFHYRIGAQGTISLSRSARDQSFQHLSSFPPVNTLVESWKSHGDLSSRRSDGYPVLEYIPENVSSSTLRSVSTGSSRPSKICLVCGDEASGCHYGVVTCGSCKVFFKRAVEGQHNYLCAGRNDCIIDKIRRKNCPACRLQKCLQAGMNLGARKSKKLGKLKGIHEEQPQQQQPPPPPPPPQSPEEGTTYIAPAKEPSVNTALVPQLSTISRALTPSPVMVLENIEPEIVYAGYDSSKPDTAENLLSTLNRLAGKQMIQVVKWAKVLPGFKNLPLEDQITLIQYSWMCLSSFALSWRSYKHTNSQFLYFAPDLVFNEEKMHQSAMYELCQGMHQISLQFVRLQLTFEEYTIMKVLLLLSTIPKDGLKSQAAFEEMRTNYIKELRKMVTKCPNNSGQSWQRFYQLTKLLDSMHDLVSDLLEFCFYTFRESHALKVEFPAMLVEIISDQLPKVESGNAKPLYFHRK
How it was run: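 Receptor source: freeze-thaw lysate of baculovirus-infected Sf9 cells carrying full-length human MR, 20-25 μg protein. Incubation ~16 h at 4 °C with shaking, pH 7.5 buffer containing 30 mM sodium molybdate and 10% glycerol.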

glucocorticoid receptor = target: T2, glucocorticoid receptor (Homo sapiens, UniProt P04150); experiment: Glucocorticoid Receptor Binding Assay ([3H]-dexamethasone, A549 cell extract); conditions: [3H]-dexamethasone binding, read-out: GR Ki
T2 construct: containing 50-200 ug of A549 cell extract and 1.86 nM [^3H]-dexamethasone; host or cells: A549 human lung epithelial cells (sonicated cell extract)
T2 sequence (P04150 1-777): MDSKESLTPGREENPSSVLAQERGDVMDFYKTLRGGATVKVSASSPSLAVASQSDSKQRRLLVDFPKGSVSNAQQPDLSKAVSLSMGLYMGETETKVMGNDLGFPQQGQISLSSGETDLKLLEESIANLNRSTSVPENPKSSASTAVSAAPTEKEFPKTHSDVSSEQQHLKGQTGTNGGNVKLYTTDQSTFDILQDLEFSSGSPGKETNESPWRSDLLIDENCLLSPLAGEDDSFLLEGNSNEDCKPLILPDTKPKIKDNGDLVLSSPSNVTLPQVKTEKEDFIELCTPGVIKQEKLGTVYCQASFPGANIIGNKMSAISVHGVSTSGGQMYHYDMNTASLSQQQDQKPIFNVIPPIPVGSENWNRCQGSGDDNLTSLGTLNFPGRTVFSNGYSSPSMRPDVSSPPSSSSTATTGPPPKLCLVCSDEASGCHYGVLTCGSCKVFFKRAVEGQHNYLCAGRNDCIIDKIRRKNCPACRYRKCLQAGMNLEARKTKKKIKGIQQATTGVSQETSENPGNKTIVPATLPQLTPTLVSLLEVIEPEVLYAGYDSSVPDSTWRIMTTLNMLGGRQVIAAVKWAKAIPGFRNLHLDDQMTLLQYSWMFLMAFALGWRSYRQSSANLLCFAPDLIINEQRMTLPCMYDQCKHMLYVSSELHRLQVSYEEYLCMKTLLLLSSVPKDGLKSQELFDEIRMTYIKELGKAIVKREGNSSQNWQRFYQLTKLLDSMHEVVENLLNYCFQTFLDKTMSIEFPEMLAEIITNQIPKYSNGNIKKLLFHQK
How it was run: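 Displacement of [3H]-dexamethasone (1.86 nM) from glucocorticoid receptor in sonicated A549 lung epithelial cell extracts, 16 h at 4 °C, pH 7.2 molybdate-containing buffer. Bound radioactivity was scintillation-counted after charcoal/dextran stripping of free ligand.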

| Structure (SMILES) | Ki (human MR) [nM] | Ki (glucocorticoid receptor) [nM] |
| --- | --- | --- |
| Oc1cccc(C=C2c3ccccc3CCc3c(Cl)cccc32)c1 [211(a), 3-(1-Chloro-10,11-dihydro-dibenzo[a,d]cyclohepten-5-ylidenemethyl)-phenol] | < 500 | < 500 |
| Oc1cccc(C=C2c3ccccc3CCc3c(Cl)cccc32)c1 [211(b), 3-(1-Chloro-10,11-dihydro-dibenzo[a,d]cyclohepten-5-ylidenemethyl)-phenol] | < 500 | < 1000 |
| Cc1nc2c(s1)/C(=C/c1cccc(NS(C)(=O)=O)c1)c1ccccc1CC2 [483(a), N-[3-(2-Methyl-9,10-dihydro-3-thia-1-aza-benzo[f]azulen-4-ylidenemethyl)-phenyl]-methanesulfonamide] | < 500 | < 500 |
| Cc1nc2c(s1)/C(=C\c1cccc(NS(C)(=O)=O)c1)c1ccccc1CC2 [483(b), N-[3-(2-Methyl-9,10-dihydro-3-thia-1-aza-benzo[f]azulen-4-ylidenemethyl)-phenyl]-methanesulfonamide] | < 500 | < 500 |
| CS(=O)(=O)Nc1cccc(/C=C2\c3ccccc3CCc3scnc32)c1 [484(a), N-[3-(9,10-Dihydro-1-thia-3-aza-benzo[f]azulen-4-ylidenemethyl)-phenyl]-methanesulfonamide] | < 1000 | < 500 |
| CS(=O)(=O)Nc1cccc(/C=C2/c3ccccc3CCc3scnc32)c1 [484(b), N-[3-(9,10-Dihydro-1-thia-3-aza-benzo[f]azulen-4-ylidenemethyl)-phenyl]-methanesulfonamide] | < 500 | < 500 |
| FC(F)c1ccc(C=C2c3ccccc3CCc3ccccc32)cc1 [Example 73, 5-(4-Difluoromethyl-benzylidene)-10,11-dihydro-5H-dibenzo[a,d]cycloheptene] | < 500 | < 1000 |
| OCc1cccc(C=C2c3ccccc3CCc3ccccc32)c1 [Example 75, [3-(10,11-Dihydro-dibenzo[a,d]cyclohepten-5-ylidenemethyl)-phenyl]-methanol] | < 500 | < 500 |
| OCc1ccc(C=C2c3ccccc3CCc3ccccc32)cc1 [Example 76, [4-(10,11-Dihydro-dibenzo[a,d]cyclohepten-5-ylidenemethyl)-phenyl]-methanol] | < 1000 | < 500 |
| O/N=C/c1ccccc1C=C1c2ccccc2CCc2ccccc21 [Example 77, 2-(10,11-Dihydro-dibenzo[a,d]cyclohepten-5-ylidenemethyl)-benzaldehyde oxime] | < 500 | < 500 |
| O/N=C/c1cccc(C=C2c3ccccc3CCc3ccccc32)c1 [Example 78, 3-(10,11-Dihydro-dibenzo[a,d]cyclohepten-5-ylidenemethyl)-benzaldehyde oxime] | < 500 | < 1000 |
| O/N=C/c1ccc(C=C2c3ccccc3CCc3ccccc32)cc1 [Example 79, 4-(10,11-Dihydro-dibenzo[a,d]cyclohepten-5-ylidenemethyl)-benzaldehyde oxime] | < 500 | < 500 |
| N#Cc1ccc(C=C2c3ccccc3CCc3ccccc32)cc1 [Example 82, 4-(10,11-Dihydro-dibenzo[a,d]cyclohepten-5-ylidenemethyl)-benzonitrile] | < 500 | < 1000 |

Further lines, results first:

| Ki (human MR) [nM] | Ki (glucocorticoid receptor) [nM] | Structure (SMILES) |
| --- | --- | --- |
| < 1000 | < 1000 | NS(=O)(=O)c1ccccc1C=C1c2ccccc2CCc2ccccc21 [Example 3, 2-(10,11-Dihydro-dibenzo[a,d]cyclohepten-5-ylidenemethyl)-benzenesulfonamide] |
| < 500 | < 500 | CN(C)S(=O)(=O)c1ccccc1C=C1c2ccccc2CCc2ccccc21 [Example 5, 2-(10,11-Dihydro-dibenzo[a,d]cyclohepten-5-ylidenemethyl)-N,N-dimethyl-benzenesulfonamide] |
| < 1000 | < 10000 | COc1ccc(N)cc1C=C1c2ccccc2CCc2ccccc21 [Example 41, 3-(10,11-Dihydro-dibenzo[a,d]cyclohepten-5-ylidenemethyl)-4-methoxy-phenylamine] |
| < 500 | < 10000 | COc1ccc(NS(C)(=O)=O)cc1C=C1c2ccccc2CCc2ccccc21 [Example 42, N-[3-(10,11-Dihydro-dibenzo[a,d]cyclohepten-5-ylidenemethyl)-4-methoxy-phenyl]-methanesulfonamide] |
| < 500 | < 1000 | Cc1ccc(C=C2c3ccccc3CCc3ccccc32)cc1NS(C)(=O)=O [Example 45, N-[5-(10,11-Dihydro-dibenzo[a,d]cyclohepten-5-ylidenemethyl)-2-methyl-phenyl]-methanesulfonamide] |
| < 500 | < 1000 | Cc1ccc(NS(C)(=O)=O)cc1C=C1c2ccccc2CCc2ccccc21 [Example 47, N-[3-(10,11-Dihydro-dibenzo[a,d]cyclohepten-5-ylidenemethyl)-4-methyl-phenyl]-methanesulfonamide] |
| < 500 | < 500 | Cc1c(C=C2c3ccccc3CCc3ccccc32)cccc1NS(C)(=O)=O [Example 48, N-[3-(10,11-Dihydro-dibenzo[a,d]cyclohepten-5-ylidenemethyl)-2-methyl-phenyl]-methanesulfonamide] |
| < 500 | < 500 | CS(=O)(=O)Nc1cc(C=C2c3ccccc3CCc3ccccc32)ccc1F [Example 49, N-[5-(10,11-Dihydro-dibenzo[a,d]cyclohepten-5-ylidenemethyl)-2-fluoro-phenyl]-methanesulfonamide] |
| < 500 | < 500 | CS(=O)(=O)Nc1cc(F)cc(C=C2c3ccccc3CCc3ccccc32)c1 [Example 50, N-[3-(10,11-Dihydro-dibenzo[a,d]cyclohepten-5-ylidenemethyl)-5-fluoro-phenyl]-methanesulfonamide] |
| < 500 | < 10000 | COc1ccc(OC)c(C=C2c3ccccc3CCc3ccccc32)c1 [Example 52, 5-(2,5-Dimethoxy-benzylidene)-10,11-dihydro-5H-dibenzo[a,d]cycloheptene] |
| < 500 | < 500 | Oc1cc(O)cc(C=C2c3ccccc3CCc3ccccc32)c1 [Example 54, 5-(10,11-Dihydro-dibenzo[a,d]cyclohepten-5-ylidenemethyl)-benzene-1,3-diol] |
| < 500 | < 500 | Oc1cccc(C=C2c3ccccc3CCc3ccccc32)c1 [Example 57, 3-(10,11-Dihydro-dibenzo[a,d]cyclohepten-5-ylidenemethyl)-phenol] |
| < 500 | < 10000 | NC(=O)c1cccc(C=C2c3ccccc3CCc3ccccc32)c1 [Example 84, 3-(10,11-Dihydro-dibenzo[a,d]cyclohepten-5-ylidenemethyl)-benzamide] |
